Measured values as given in PubChem BioAssay (NCI).
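All cell lines were grown in 96-well plates and treated with compound for 48 hours. At the GI50, growth is halved. Definition used: TGI = concentration required for complete inhibition of growth.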

Key:
Test in all cases: NCI-60 cell line screen, 48 h
[1] = system: OVCAR-4 ovarian
[2] = system: CAKI-1 renal
[3] = system: ACHN renal
[4] = system: NCI-H226 lung
[5] = system: SNB-75 CNS
[6] = system: DU-145 prostate
[7] = system: SN12C renal
[8] = system: LOX IMVI melanoma
[9] = system: SF-295 CNS
[10] = system: IGROV1 ovarian
[11] = system: UO-31 renal
[12] = system: BT-549 breast
[13] = system: NCI-H23 lung
[14] = system: HCT-116 colon
[15] = system: SR leukemia
[16] = system: OVCAR-5 ovarian
[17] = system: 786-0 renal
[18] = system: OVCAR-8 ovarian
[19] = system: MDA-MB-231 breast
[20] = system: SNB-19 CNS
[21] = system: SK-MEL-28 melanoma
[22] = system: UACC-62 melanoma
[23] = system: MDA-MB-435
[24] = system: COLO 205 colon
[25] = system: NCI-H460 lung
[26] = system: U251 CNS
[27] = system: M14 melanoma
[28] = system: RPMI-8226 leukemia
[29] = system: SK-MEL-2 melanoma
[30] = system: UACC-257 melanoma
[31] = system: HS 578T breast
[32] = system: PC-3 prostate
[33] = system: EKVX NSCLC
[34] = system: SK-MEL-5 melanoma
[35] = system: HOP-62 NSCLC
[36] = system: A549 NSCLC
[37] = system: T-47D breast
[38] = system: OVCAR-3 ovarian
[39] = system: K-562 leukemia
[40] = system: NCI/ADR-RES ovarian
[41] = system: SF-539 CNS
[42] = system: KM12 colon
[43] = system: SW-620 colon
[44] = system: HT29 colon
[45] = system: MCF7 breast
[46] = system: HOP-92 NSCLC
[47] = system: TK-10 renal
[48] = system: SF-268 CNS
[49] = system: A498 renal
[50] = system: NCI-H522 lung
[51] = system: HL-60(TB) leukemia
[52] = system: MOLT-4 leukemia
[53] = system: CCRF-CEM leukemia
[54] = system: HCT-15 colon
[55] = system: HCC-2998 colon

## COc1ccc2c(c1)CCC1C2CCC2(C)C3=CC(O)CCC3CC12 (stereo not given)
[1]
  GI50: 28 µM
  TGI: 75.1 µM
[2]
  GI50: 21.9 µM
  TGI: 45.5 µM
[3]
  GI50: 20.1 µM
  TGI: 34.7 µM
[4]
  GI50: 18 µM
  TGI: 40.7 µM
[5]
  GI50: 43.5 µM
  TGI: > 100 µM
[6]
  GI50: 15.7 µM
  TGI: 30.2 µM
[7]
  GI50: 16.4 µM
  TGI: 30.9 µM
[8]
  GI50: 15.4 µM
  TGI: 31.8 µM
[9]
  GI50: 20.4 µM
  TGI: 46.1 µM
[10]
  GI50: 16.7 µM
  TGI: 37.2 µM
[11]
  GI50: 19.8 µM
  TGI: 40.9 µM
[12]
  GI50: 18.8 µM
  TGI: 41.5 µM
[13]
  GI50: 15.8 µM
  TGI: 30.1 µM
[14]
  GI50: 15.7 µM
  TGI: 29.6 µM
[15]
  GI50: 14.3 µM
  TGI: 37.5 µM
[16]
  GI50: 15.2 µM
  TGI: 29.1 µM
[17]
  GI50: 17.4 µM
  TGI: 33.3 µM
[18]
  GI50: 18 µM
  TGI: 36.7 µM
[19]
  GI50: 17.6 µM
  TGI: 34.8 µM
[20]
  GI50: 21.5 µM
  TGI: 42.5 µM
[21]
  GI50: 21.8 µM
  TGI: 51.5 µM
[22]
  GI50: 12.5 µM
  TGI: 25 µM
[23]
  GI50: 15.3 µM
  TGI: 35.4 µM
[24]
  GI50: 32.7 µM
  TGI: 88.7 µM
[25]
  GI50: 19.4 µM
  TGI: 40.7 µM
[26]
  GI50: 14 µM
  TGI: 27.4 µM
[27]
  GI50: 15.7 µM
  TGI: 30.2 µM
[28]
  GI50: 16.7 µM
  TGI: 43.9 µM
[29]
  GI50: 18.9 µM
  TGI: 56.6 µM
[30]
  GI50: 12.7 µM
  TGI: 26.2 µM
[31]
  GI50: 23.4 µM
  TGI: 49.1 µM
[32]
  GI50: 15.2 µM
  TGI: 31.1 µM
[33]
  GI50: 16.9 µM
  TGI: 36.2 µM
[34]
  GI50: 11.7 µM
  TGI: 23.9 µM
[35]
  GI50: 19.6 µM
  TGI: 34.4 µM
[36]
  GI50: 14.7 µM
  TGI: 31.6 µM
[37]
  GI50: 23 µM
  TGI: 64.5 µM
[38]
  GI50: 25.1 µM
  TGI: 53.6 µM
[39]
  GI50: 13.1 µM
  TGI: 35.5 µM
[40]
  GI50: 16 µM
  TGI: 34.5 µM
[41]
  GI50: 18.3 µM
  TGI: 34.7 µM
[42]
  GI50: 19.8 µM
  TGI: 40.1 µM
[43]
  GI50: 14.4 µM
  TGI: 30.1 µM
[44]
  GI50: 11 µM
  TGI: 37.4 µM
[45]
  GI50: 24.8 µM
  TGI: 50.5 µM
[46]
  GI50: 22.6 µM
  TGI: 45.2 µM
[47]
  GI50: 21.2 µM
  TGI: 43.2 µM
[48]
  GI50: 20.3 µM
  TGI: 40.6 µM
[49]
  GI50: 16.7 µM
  TGI: 35.4 µM
[50]
  GI50: 14.3 µM
  TGI: 31.5 µM
[51]
  GI50: 15.6 µM
  TGI: 35.5 µM
[52]
  GI50: 18.3 µM
  TGI: 43.7 µM
[53]
  GI50: 15.6 µM
  TGI: 36.3 µM
[54]
  GI50: 7.06 µM
  TGI: 21.2 µM
[55]
  GI50: 14.3 µM
  TGI: 27.4 µM
